Experimental data taken from US10294246B2, “Substituted boronic acids and boronate esters as immunoproteasome inhibitors” (MERCK PATENT GMBH, priority 2014, dated 2019).

Assays:
[1] = molecular target: human immunoproteasome (LMP7) (Homo sapiens (Human), UniProt P28062); assay: Determination of LMP7 activity (fluorescence intensity assay, Suc-LLVY-AMC); format: biochemical; conditions: for Selectivity LMP7 vs Beta5: LMP7 versus Beta5; for IC50: purified human immunoproteasome 0.25 nM, Suc-LLVY-AMC 40 μM
How it was run: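 0.25 nM purified human immunoproteasome preincubated 20 min at 25 °C with serially diluted compounds in 50 mM Tris pH 7.4, 0.03% SDS, 1 mM EDTA, 1% DMSO. Reaction started with 40 μM Suc-LLVY-AMC, run 60 min at 37 °C. Fluorescence read at ex 350/em 450 nm.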

[2] = molecular target: human constitutive proteasome (Beta5) (Homo sapiens (Human), UniProt P28074); assay: Determination of Beta5 activity (fluorescence intensity assay, Suc-LLVY-AMC); format: biochemical; conditions: purified human constitutive proteasome 1.25 nM, Suc-LLVY-AMC 40 μM
How it was run: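 Purified constitutive proteasome (1.25 nM) was preincubated with compounds 20 min at 25 °C in 50 mM Tris pH 7.4, 0.03% SDS, 1 mM EDTA, 1% DMSO. Suc-LLVY-AMC (40 μM) was then added for 60 min at 37 °C. AMC fluorescence was read at ex 350/em 450 nm.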

Row | Selectivity LMP7 vs Beta5 [1] | IC50 [1] | IC50 [2] | SMILES
1 | ++++ (70 ≤ Selectivity < 100) | < 50 nM | 50 to 500 nM | COc1ccc(CC(=O)N[C@@H](Cc2coc3ccccc23)B(O)O)c(OC)c1OC [Compound No. 60, [(1R)-2-(benzofuran-3-yl)-1-[[2-(2,3,4-trimethoxyphenyl)acetyl]amino]-ethyl]boronic acid]
2 | +++ (50 ≤ Selectivity < 70) | < 50 nM | 500 to 5000 nM | CCOC(=O)Nc1cccc(CC(=O)N[C@@H](Cc2coc3ccccc23)B(O)O)c1 [Compound No. 72, [(1R)-2-(benzofuran-3-yl)-1-[[2-[3-(ethoxycarbonylamino)phenyl]-acetyl]amino]ethyl]boronic acid]
3 | +++++ (Selectivity ≥ 100) | 50 to 500 nM | > 5000 nM | C[C@@H](C(=O)N[C@@H](Cc1coc2ccccc12)B(O)O)c1ccccc1C(=O)N(C)C [Compound No. 97, [(1R)-2-(benzofuran-3-yl)-1-[[(2R)-2-[2-(dimethylcarbamoyl)-phenyl]propanoyl]amino]ethyl]boronic acid]
4 | ++++ (70 ≤ Selectivity < 100) | < 50 nM | 50 to 500 nM | O=C(N[C@@H](Cc1coc2ccccc12)B(O)O)[C@@H](CO)c1ccccc1 [Compound No. 59, [(1R)-2-(benzofuran-3-yl)-1-[[(2R)-3-hydroxy-2-phenyl-propanoyl]-amino]ethyl]boronic acid]
5 | +++++ (Selectivity ≥ 100) | 50 to 500 nM | > 5000 nM | O=C(Cc1ccccc1OCCCO)N[C@H](Cc1coc2ccccc12)B(O)O [Compound No. 61, [(1S)-2-(benzofuran-3-yl)-1-[[2-[2-(3-hydroxypropoxy)phenyl]acetyl]-amino]ethyl]boronic acid]
6 | +++++ (Selectivity ≥ 100) | < 50 nM | 500 to 5000 nM | N#Cc1cccc(CC(=O)N[C@@H](Cc2coc3ccccc23)B(O)O)c1 [Compound No. 123, [(1R)-2-(benzofuran-3-yl)-1-[[2-(3-cyanophenyl)acetyl]amino]ethyl]-boronic acid]
7 | ++ (10 ≤ Selectivity < 50) | 500 to 5000 nM | > 5000 nM | Cc1cccc2c(C[C@@H](NC(=O)[C@@H](CO)c3ccccc3)B(O)O)coc12 [Compound No. 84, [(1S)-1-[[(2R)-3-hydroxy-2-phenyl-propanoyl]amino]-2-(7-methylbenzofuran-3-yl)ethyl]boronic acid]
8 | + (Selectivity < 10) | 500 to 5000 nM | > 5000 nM | COc1ccc(CCC(=O)N[C@H](CC2COc3c(C)cccc32)B(O)O)nc1 (stereo partly drawn) [Compound No. 87, [(1S)-1-[3-(5-methoxy-2-pyridyl)propanoylamino]-2-(7-methyl-2,3-dihydrobenzofuran-3-yl)ethyl]boronic acid]
9 | ++ (10 ≤ Selectivity < 50) | 50 to 500 nM | 500 to 5000 nM | O=C(Cc1ccc(-c2ccccc2)cc1)N[C@H](Cc1coc2ccccc12)B(O)O [Compound No. 69, [(1S)-2-(benzofuran-3-yl)-1-[[2-(4-phenylphenyl)acetyl]amino]ethyl]-boronic acid]
10 | +++++ (Selectivity ≥ 100) | < 50 nM | > 5000 nM | Cc1ccc(C)c2c(C[C@H](NC(=O)Cc3ccccc3)B(O)O)coc12 [Compound No. 128, [(1R)-2-(4,7-dimethylbenzofuran-3-yl)-1-[(2-phenylacetyl)-amino]ethyl]boronic acid]
11 | +++++ (Selectivity ≥ 100) | < 50 nM | 500 to 5000 nM | N#Cc1ccccc1CC(=O)N[C@@H](C[C@@H]1COc2c(Cl)cccc21)B(O)O [Compound No. 134, [(1R)-2-[(3S)-7-chloro-2,3-dihydrobenzofuran-3-yl]-1-[[2-(2-cyanophenyl)acetyl]amino]ethyl]boronic acid]
12 | +++++ (Selectivity ≥ 100) | < 50 nM | 500 to 5000 nM | Cc1c(Cl)ccc2c(C[C@H](NC(=O)Cc3ccccc3)B(O)O)coc12 [Compound No. 126, [(1R)-2-(6-chloro-7-methyl-benzofuran-3-yl)-1-[(2-phenylacetyl)-amino]ethyl]boronic acid]
13 | +++++ (Selectivity ≥ 100) | 50 to 500 nM | > 5000 nM | C[C@H](C(=O)N[C@@H](Cc1coc2ccccc12)B(O)O)c1ccccc1C(=O)N(C)C [Compound No. 96, [(1R)-2-(benzofuran-3-yl)-1-[[(2S)-2-[2-(dimethylcarbamoyl)phenyl]-propanoyl]amino]ethyl]boronic acid]
14 | +++++ (Selectivity ≥ 100) | < 50 nM | 500 to 5000 nM | COc1ccc(OC)c(CC(=O)N[C@@H](Cc2coc3c(C)cccc23)B(O)O)c1 [Compound No. 78, [(1R)-1-[[2-(2,5-dimethoxyphenyl)acetyl]amino]-2-(7-methylbenzofuran-3-yl)ethyl]boronic acid]

More lines, now with the values behind:

Row | SMILES | Selectivity LMP7 vs Beta5 [1] | IC50 [1] | IC50 [2]
15 | Cc1ccc(C[C@H](NC(=O)Cc2ccccc2)B(O)O)c(C)c1 [Compound No. 29, [(1R)-2-(2,4-dimethylphenyl)-1-[(2-phenylacetyl)amino]ethyl]boronic acid] | +++++ (Selectivity ≥ 100) | 50 to 500 nM | > 5000 nM
16 | CC(=O)Nc1cccc(CC(=O)N[C@@H](Cc2coc3ccccc23)B(O)O)c1 [Compound No. 32, [(1R)-1-[[2-(3-acetamidophenyl)acetyl]amino]-2-(benzofuran-3-yl)ethyl]boronic acid] | ++++ (70 ≤ Selectivity < 100) | – | 50 to 500 nM
17 | COCC(=O)Nc1ccc(CC(=O)N[C@@H](Cc2ccc(C)cc2C)B(O)O)cc1 [Compound No. 47, [(1R)-2-(2,4-dimethylphenyl)-1-[[2-[4-[(2-methoxyacetyl)amino]-phenyl]acetyl]amino]ethyl]boronic acid] | +++++ (Selectivity ≥ 100) | 50 to 500 nM | > 5000 nM
18 | COc1ccc(OC)c(CC(=O)N[C@@H](Cc2coc3ccccc23)B(O)O)c1 [Compound No. 58, [(1R)-2-(benzofuran-3-yl)-1-[[2-(2,5-dimethoxyphenyl)acetyl]amino]-ethyl]boronic acid] | ++++ (70 ≤ Selectivity < 100) | < 50 nM | 50 to 500 nM
19 | Cc1ccc(C[C@H](NC(=O)Cc2c(C)cccc2C)B(O)O)c(C)c1 [Compound No. 35, [(1R)-2-(2,4-dimethylphenyl)-1-[[2-(2,6-dimethylphenyl)acetyl]amino]-ethyl]boronic acid] | ++ (10 ≤ Selectivity < 50) | 50 to 500 nM | 500 to 5000 nM
20 | O=C(COc1ccccc1)N[C@@H](Cc1ccccc1)B(O)O [Compound No. 3, [(1R)-1-[(2-phenoxyacetyl)amino]-2-phenyl-ethyl]boronic acid] | ++ (10 ≤ Selectivity < 50) | < 50 nM | 50 to 500 nM
21 | O=C(N[C@@H](Cc1coc2ccccc12)B(O)O)C(F)(F)c1ccccc1 [Compound No. 23, [(1R)-2-(benzofuran-3-yl)-1-[(2,2-difluoro-2-phenyl-acetyl)amino]-ethyl]boronic acid] | +++++ (Selectivity ≥ 100) | < 50 nM | 500 to 5000 nM
22 | O=C(COc1ccccn1)N[C@@H](Cc1ccccc1)B(O)O [Compound No. 2, [(1R)-2-phenyl-1-[[2-(2-pyridyloxy)acetyl]amino]ethyl]boronic acid] | ++ (10 ≤ Selectivity < 50) | 50 to 500 nM | 500 to 5000 nM
23 | O=C(N[C@H](Cc1coc2ccccc12)B(O)O)[C@H](CO)c1ccccc1 [Compound No. 56, [(1S)-2-(benzofuran-3-yl)-1-[[(2S)-3-hydroxy-2-phenyl-propanoyl]-amino]ethyl]boronic acid] | +++++ (Selectivity ≥ 100) | 50 to 500 nM | > 5000 nM
24 | Cc1ccc(C[C@H](NC(=O)[C@H](O)c2ccccc2)B(O)O)cc1 [Compound No. 16, [(1R)-1-[[(2R)-2-hydroxy-2-phenyl-acetyl]amino]-2-(p-tolyl)ethyl]-boronic acid] | ++ (10 ≤ Selectivity < 50) | 50 to 500 nM | 500 to 5000 nM
25 | O=C(Cc1ccccc1C(F)(F)F)N[C@@H](Cc1coc2ccccc12)B(O)O [Compound No. 24, [(1R)-2-(benzofuran-3-yl)-1-[[2-[2-(trifluoromethyl)phenyl]acetyl]-amino]ethyl]boronic acid] | +++++ (Selectivity ≥ 100) | < 50 nM | 500 to 5000 nM
26 | CO[C@H](C(=O)N[C@@H](Cc1coc2ccccc12)B(O)O)c1ccccc1 [Compound No. 33, [(1R)-2-(benzofuran-3-yl)-1-[[(2S)-2-methoxy-2-phenyl-acetyl]amino]-ethyl]boronic acid] | +++++ (Selectivity ≥ 100) | – | 500 to 5000 nM
27 | COCc1cccc(CC(=O)N[C@@H](Cc2coc3ccccc23)B(O)O)c1 [Compound No. 49, [(1R)-2-(benzofuran-3-yl)-1-[[2-[3-(methoxymethyl)phenyl]acetyl]-amino]ethyl]boronic acid] | +++++ (Selectivity ≥ 100) | < 50 nM | 50 to 500 nM
28 | O=C(Cc1cnccn1)N[C@@H](Cc1coc2ccccc12)B(O)O [Compound No. 18, [(1R)-2-(benzofuran-3-yl)-1-[(2-pyrazin-2-ylacetyl)amino]ethyl]boronic acid] | ++ (10 ≤ Selectivity < 50) | < 50 nM | 50 to 500 nM
